Among the data in patent US12157746B2, “Tetrahydro-1H-pyrazino[2,1-a]isoindolylquinoline compounds for the treatment of autoimmune disease” (F. HOFFMANN-LA ROCHE AG, priority 2018, dated 2024) are IC50 values, retold here.

The target of the assay is T1, human TLR8 (Homo sapiens, UniProt Q9NR97).
T1 sequence (Q9NR97 27-1041): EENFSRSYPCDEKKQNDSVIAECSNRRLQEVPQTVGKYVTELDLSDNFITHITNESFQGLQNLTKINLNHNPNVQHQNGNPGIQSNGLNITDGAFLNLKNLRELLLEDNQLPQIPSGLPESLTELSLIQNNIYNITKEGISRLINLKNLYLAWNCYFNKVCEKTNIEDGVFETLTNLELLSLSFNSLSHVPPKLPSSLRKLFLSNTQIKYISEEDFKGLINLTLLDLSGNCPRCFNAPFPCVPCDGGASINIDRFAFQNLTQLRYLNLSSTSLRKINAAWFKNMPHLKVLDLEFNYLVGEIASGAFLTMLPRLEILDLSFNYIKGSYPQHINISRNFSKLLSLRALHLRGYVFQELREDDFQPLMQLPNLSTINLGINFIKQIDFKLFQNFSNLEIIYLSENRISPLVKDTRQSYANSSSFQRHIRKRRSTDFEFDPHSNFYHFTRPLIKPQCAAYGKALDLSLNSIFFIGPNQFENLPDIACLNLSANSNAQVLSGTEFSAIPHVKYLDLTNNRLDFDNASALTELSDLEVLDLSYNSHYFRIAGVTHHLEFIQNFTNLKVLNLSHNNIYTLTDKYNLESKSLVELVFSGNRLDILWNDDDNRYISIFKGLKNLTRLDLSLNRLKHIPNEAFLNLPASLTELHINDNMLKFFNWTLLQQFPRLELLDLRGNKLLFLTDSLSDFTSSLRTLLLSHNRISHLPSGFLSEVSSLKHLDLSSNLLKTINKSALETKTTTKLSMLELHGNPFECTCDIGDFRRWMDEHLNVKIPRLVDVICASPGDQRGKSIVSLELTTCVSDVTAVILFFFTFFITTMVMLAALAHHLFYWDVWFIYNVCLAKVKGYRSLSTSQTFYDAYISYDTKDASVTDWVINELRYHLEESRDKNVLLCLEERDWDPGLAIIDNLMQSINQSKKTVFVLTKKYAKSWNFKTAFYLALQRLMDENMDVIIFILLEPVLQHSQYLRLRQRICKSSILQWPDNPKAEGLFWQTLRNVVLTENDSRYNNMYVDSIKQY
The assay can be described thus: HEK293-Blue-hTLR-8 cells assay. Format: cell-based. Particulars: HEK293-Blue-hTLR8 cells, R848 stimulation, 20 hrs, SEAP reporter; read-out: HEK/hTLR8 IC50. The source says:
HEK293-Blue-hTLR-8 Cells Assay:
A stable HEK293-Blue-hTLR-8 cell line was purchased from InvivoGen (Cat. #: hkb-htlr8, San Diego, California, USA). These cells were originally designed for studying the stimulation of human TLR8 by monitoring the activation of NF-κB. A SEAP (secreted embryonic alkaline phosphatase) reporter gene was placed under the control of the IFN-β minimal promoter fused to five NF-κB and AP-1-binding sites. The SEAP was induced by activating NF-κB and AP-1 via stimulating HEK-Blue hTLR8 cells with TLR8 ligands. Therefore the reporter expression was declined by TLR8 antagonist under the stimulation of a ligand, such as R848, for incubation of 20 hrs. The cell culture supernatant SEAP reporter activity was determined using QUANTI-Blue™kit (Cat. #: rep-qb1, Invivogen, San Diego, Ca, USA) at a wavelength of 640 nm, a detection medium that turns purple or blue in the presence of alkaline phosphatase.
HEK293-Blue-hTLR8 cells were incubated at a density of 250,000-450,000 cells/mL in a volume of 170 μL in a 96-well plate in Dulbecco's Modified Eagle's medium (DMEM) containing 4.5 g/L glucose, 50 U/mL penicillin, […], […], 2 mM L-glutamine, 10% (v/v) heat-inactivated fetal bovine serum with addition of 20 μL test compound 1n a serial dilution in the presence of final DMSO at 1% and 10 μL of 60 uM R848 in above DMEM, perform incubation under 37° C. in a CO2 incubator for 20 hrs. Then 20 μL of the supernatant from each well was incubated with 180 μL Quanti-blue substrate solution at 37° C. for 2 hrs and the absorbance was read at 620-655 nm using a spectrophotometer. The signaling pathway that TLR8 activation leads to downstream NF-κB activation has been widely accepted, and therefore similar reporter assay was modified for evaluating TLR8 antagonist.
As to `C[C@@H]1CN(c2ccc(C#N)c3ncccc23)C[C@@H]2c3ccc(N4CCC(N)(CO)C4)cc3CN12` (stereo partly drawn) [Example 19, 5-[(4R,10bS)-8-[3-amino-3-(hydroxymethyl)pyrrolidin-1-yl]-4-methyl-3,4,6,10b-tetrahydro-1H-pyrazino[2,1-a]isoindol-2-yl]quinoline-8-carbonitrile], the IC50 is less than 3.2 nM. To `C[C@@H]1CN(c2ccc(C#N)c3ncccc23)C[C@@H]2c3ccc(N[C@H]4CNC[C@H]4F)cc3CN12` [Example 30, 5-[(4R,10bS)-8-[[(3S,4R)-4-fluoropyrrolidin-3-yl]amino]-4-methyl-3,4,6,10b-tetrahydro-1H-pyrazino[2,1-a]isoindol-2-yl]quinoline-8-carbonitrile] belongs less than 3.2 nM. The value for `C[C@@H]1CN(c2ccc(C#N)c3ncccc23)C[C@@H]2c3ccc(N4CC(N)C5(COC5)C4)cc3CN12` (stereo partly drawn) [Example 18, 5-[(4R,10bS)-8-(5-amino-2-oxa-7-azaspiro[3.4]octan-7-yl)-4-methyl-3,4,6,10b-tetrahydro-1H-pyrazino[2,1-a]isoindol-2-yl]quinoline-8-carbonitrile] was less than 3.2 nM.

As for `[2H]c1ccc2c(N3C[C@@H](C)N4Cc5cc(N6CC(C)(N)C6)ccc5[C@H]4C3)ccc(C#N)c2n1` [Example 92, 5-[(4R,10bS)-8-(3-amino-3-methyl-azetidin-1-yl)-4-methyl-3,4,6,10b-tetrahydro-1H-pyrazino[2,1-a]isoindol-2-yl]-2-deuterio-quinoline-8-carbonitrile], the IC50 is less than 0.3 nM. To `C[C@@H]1CN(c2ccc(C#N)c3ncccc23)C[C@@H]2c3ccc(C4CCNCC4)cc3CN12` [Example 9, 5-[(4R,10bS)-4-methyl-8-(4-piperidyl)-3,4,6,10b-tetrahydro-1H-pyrazino[2,1-a]isoindol-2-yl]quinoline-8-carbonitrile] belongs less than 3.2 nM; to `CN[C@H]1CN(c2ccc3c(c2)CN2[C@H](C)CN(c4ccc(C#N)c5ncccc45)C[C@H]32)C[C@@H]1OC` [Example 23, 5-[(4R,10bS)-8-[(3S,4S)-3-methoxy-4-(methylamino)pyrrolidin-1-yl]-4-methyl-3,4,6,10b-tetrahydro-1H-pyrazino[2,1-a]isoindol-2-yl]quinoline-8-carbonitrile], less than 3.2 nM; to `CO[C@@H]1CN(c2ccc3c(c2)CN2[C@H](C)CN(c4ccc(C#N)n5nccc45)C[C@H]32)CC[C@@H]1N` [Example 105, 4-[(4R,10bS)-8-[(3R,4S)-4-amino-3-methoxy-1-piperidyl]-4-methyl-3,4,6,10b-tetrahydro-1H-pyrazino[2,1-a]isoindol-2-yl]pyrazolo[1,5-a]pyridine-7-carbonitrile], 4.1 nM. The value for `C[C@@H]1CN(c2ccc(C#N)c3ncccc23)C[C@@H]2c3ccc(N4C[C@@H](F)[C@@H](N)C4)cc3CN12` [Example 46, 5-[(4R,10bS)-8-[(3S,4R)-3-amino-4-fluoro-pyrrolidin-1-yl]-4-methyl-3,4,6,10b-tetrahydro-1H-pyrazino[2,1-a]isoindol-2-yl]quinoline-8-carbonitrile] was 0.4 nM. The value for `CO[C@@H]1CN(c2ccc3c(c2)CN2C3CN(c3ccc(C#N)c4ncccc34)C[C@H]2C)C[C@@H]1N` (relative stereo) [Example 17, 5-[(4R,10bS)-8-[cis-3-amino-4-methoxy-pyrrolidin-1-yl]-4-methyl-3,4,6,10b-tetrahydro-1H-pyrazino[2,1-a]isoindol-2-yl]quinoline-8-carbonitrile] was less than 3.2 nM; that for `C[C@@H]1CN(c2ccc(C#N)c3ncccc23)C[C@@H]2c3ccc(N4CCOC5CNCC54)cc3CN12` (stereo partly drawn) [Example 52, 5-[(4R,10bS)-8-(3,4a,5,6,7,7a-hexahydro-2H-pyrrolo[3,4-b][1,4]oxazin-4-yl)-4-methyl-3,4,6,10b-tetrahydro-1H-pyrazino[2,1-a]isoindol-2-yl]quinoline-8-carbonitrile] was less than 3.2 nM; that for `C[C@@H]1CN(c2ccc(C#N)n3nccc23)C[C@@H]2c3ccc(N4C[C@@H](N)[C@](C)(O)C4)cc3CN12` [Example 108, 4-[(4R,10bS)-8-[(3R,4R)-4-amino-3-hydroxy-3-methyl-pyrrolidin-1-yl]-4-methyl-3,4,6,10b-tetrahydro-1H-pyrazino[2,1-a]isoindol-2-yl]pyrazolo[1,5-a]pyridine-7-carbonitrile] was 8.9 nM.

As to `C[C@@H]1CN(c2ccc(C#N)c3ncccc23)C[C@@H]2c3ccc(N4C[C@@H](N)[C@@H](F)C4)cc3CN12` [Example 47, 5-[(4R,10bS)-8-[(3R,4S)-3-amino-4-fluoro-pyrrolidin-1-yl]-4-methyl-3,4,6,10b-tetrahydro-1H-pyrazino[2,1-a]isoindol-2-yl]quinoline-8-carbonitrile], the IC50 was found to be 0.6 nM.

With `C[C@@H]1CN(c2ccc(C#N)n3nccc23)C[C@@H]2c3ccc(N4CC5CNCC(C4)O5)cc3CN12` [Example 107, 4-[(4R,10bS)-4-methyl-8-(9-oxa-3,7-diazabicyclo[3.3.1]nonan-3-yl)-3,4,6,10b-tetrahydro-1H-pyrazino[2,1-a]isoindol-2-yl]pyrazolo[1,5-a]pyridine-7-carbonitrile], the IC50 was found to be 16.5 nM.

Regarding `C[C@@H]1CN(c2ccc(C#N)c3ncccc23)C[C@@H]2c3ccc(N[C@H]4CNC[C@@H]4F)cc3CN12` [Example 31, 5-[(4R,10bS)-8-[[(3S,4S)-4-fluoropyrrolidin-3-yl]amino]-4-methyl-3,4,6,10b-tetrahydro-1H-pyrazino[2,1-a]isoindol-2-yl]quinoline-8-carbonitrile], the IC50 is less than 3.2 nM. To `C[C@@H]1CN(c2ccc(C#N)c3ncsc23)C[C@@H]2c3ccc(N4CCNCC4)cc3CN12` [Example 6, 7-[(4R,10bS)-4-methyl-8-piperazin-1-yl-3,4,6,10b-tetrahydro-1H-pyrazino[2,1-a]isoindol-2-yl]-1,3-benzothiazole-4-carbonitrile] belongs less than 3.2 nM; to `CO[C@H]1CCN(c2ccc3c(c2)CN2[C@H](C)CN(c4ccc(C#N)n5nccc45)C[C@H]32)C[C@H]1N` [Example 106, 4-[(4R,10bS)-8-[(3R,4S)-3-amino-4-methoxy-1-piperidyl]-4-methyl-3,4,6,10b-tetrahydro-1H-pyrazino[2,1-a]isoindol-2-yl]pyrazolo[1,5-a]pyridine-7-carbonitrile], 2.9 nM. To `C[C@@H]1CN(c2ccc(C#N)c3ncccc23)C[C@@H]2c3ccc(OCCN(C)C)cc3CN12` [Example 25, 5-[(4R,10bS)-8-[2-(dimethylamino)ethoxy]-4-methyl-3,4,6,10b-tetrahydro-1H-pyrazino[2,1-a]isoindol-2-yl]quinoline-8-carbonitrile] belongs less than 3.2 nM. To `C[C@@H]1CN(c2ccc(C#N)c3ncccc23)C[C@@H]2c3ccc(N4C[C@@H](N)[C@H](F)C4)cc3CN12` [Example 48, 5-[(4R,10bS)-8-[(3R,4R)-3-amino-4-fluoro-pyrrolidin-1-yl]-4-methyl-3,4,6,10b-tetrahydro-1H-pyrazino[2,1-a]isoindol-2-yl]quinoline-8-carbonitrile] belongs 0.7 nM; to `COC1CN(c2ccc3c(c2)CN2C3CN(c3ccc(C#N)c4ncccc34)C[C@H]2C)CC1N` (single isomer, unassigned) [Example 16B], less than 3.2 nM.
